Assay results: article PMC5838106, “Cathelicidin promotes inflammation by enabling binding of self-RNA to cell surface scavenger receptors” (Scientific Reports, 2018)
Where no end group is shown, it is not given here.

What was measured:
SR-B1 = target: T1, SR-B1 (Homo sapiens, UniProt Q8WTV0); assay: Proximity ligation assay for SR-B1 and U1 RNA; assay type: cell-based; conditions: NHEKs, peptide 2.5 μM 10 minutes, biotinylated U1 RNA 2.5 μg/mL, 4 °C, 1 hour
T1 construct: endogenous in cells; host or cells: NHEK (primary neonatal human epidermal keratinocytes)
T1 sequence (Q8WTV0 1-509 isoform Q8WTV0-2): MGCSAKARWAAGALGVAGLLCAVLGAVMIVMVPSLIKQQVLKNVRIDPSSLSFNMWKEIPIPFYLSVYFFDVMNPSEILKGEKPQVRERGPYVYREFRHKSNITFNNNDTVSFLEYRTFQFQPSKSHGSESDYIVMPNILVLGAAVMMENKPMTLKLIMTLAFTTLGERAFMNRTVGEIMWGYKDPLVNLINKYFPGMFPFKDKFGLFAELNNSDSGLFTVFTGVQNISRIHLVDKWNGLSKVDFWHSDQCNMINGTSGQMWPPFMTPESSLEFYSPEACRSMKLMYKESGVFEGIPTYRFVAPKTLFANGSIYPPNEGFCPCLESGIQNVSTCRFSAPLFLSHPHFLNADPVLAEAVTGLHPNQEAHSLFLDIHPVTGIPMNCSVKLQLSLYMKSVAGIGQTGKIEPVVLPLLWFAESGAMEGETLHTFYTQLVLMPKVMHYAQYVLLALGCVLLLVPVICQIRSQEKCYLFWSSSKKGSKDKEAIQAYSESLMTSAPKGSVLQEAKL
Protocol: Figure 3 Cathelicidin enables dsRNA to associate with scavenger receptors. (a) Proximity ligation assay for SR-B1 and U1 RNA. NHEKs were cultured with various cathelicidin peptides (2.5 μM) for 10 minutes, then with biotinylated U1 RNA (2.5 μg/mL) at 4 °C for 1 hour before physical proximity of SR-B1 and U1 RNA was determined using a fluorescence-based PLA that produces a red fluorescent signal. Nuclei (blue) are counterstained with DAPI. Scale bar represents 10 μm. (b) Signal count of (a) in 5 visual fields. (c) Proximity ligation assay as in (a) but reaction is detecting proximity of LL37 and SR-A6. Scale bar represents 100 μm. (d) Signal count of proximity ligation assay performed as in (a), but between U1 RNA and the indicated scavenger receptors, each count is PLA complexes observed in 5 visual fields. (e) Skin sections from healthy subject (control), or lesional skin from a psoriasis patient (Psoriasis) were fixed and PLA performed for LL37 and SR-B1. […]
NHEKs seeded into 8 chamber slides (Thermo Fisher Scientific) were incubated with various combination of U1 RNA, poly(I:C), cathelicidin peptides, and fucoidan for 1 hour at 4 °C allowing binding, but not internalization. […] Fluorescent PLA signals were evaluated using fluorescence microscopy (described above). Signals are counted by Duolink ImageTool software version 1.0.1.2 (Sigma-aldrich).

NHEKs = assay: Cytokine mRNA expression in NHEKs stimulated with cathelicidin peptide and dsRNA (quantitative real-time PCR); assay type: cell-based, human; conditions: for capacity to enable U1 RNA to amplify IFN-β1 or IL-6 expression: NHEKs, peptide 2.5 μM 10 minutes, then U1 RNA 2.5 μg/mL 6 hours, n = 3
Protocol: Figure 1 Inflammatory activity of cathelicidin can be dissociated from antimicrobial function (a) Transcriptomic analysis by RNASeq of primary cultures of normal human epidermal keratinocytes (NHEKs) treated with LL37 (2.5 μM) with or without U1 RNA (2.5 μg/mL) for 24 hours. Shown are gene sets induced > 2 fold over vehicle, and after treatment with LL37, U1 RNA, or the combination of LL37 + U1 RNA. (b) Gene Ontology analysis of gene sets from (a). The number of genes related to each biological process is indicated in parentheses. (c) Amino acid sequence of synthetic cathelicidin peptides used in this study. (d) Antimicrobial assay of cathelicidin peptides against group A streptococcus (GAS). GAS were incubated with various concentrations of each peptide (0–25 μM) for 6 hours, then surviving colonies counted after plating on Todd Hewitt Broth gel. (e) IFN-β1 mRNA abundance and (f) IL-6 mRNA abundance in NHEKs after treatment with cathelicidin peptides (2.5 μM) for 10 minutes, then stimulated with U1 RNA (2.5 μg/mL) for a further 6 hours. (n = 3). (g) IFN-β1 mRNA abundance and (h) IL-6 mRNA abundance in […] (PMA)-treated THP1 cells after treatment with cathelicidin peptides (3 μM) for 10 minutes, then stimulated with U1 RNA (12.5 μg/mL) overnight. (n = 3). Data presented are from one representative experiment of at least two independent experiments. Error bars are SEM of three biological replicates. *P < 0.05, **P < 0.01, ***P < 0.001 by two-way ANOVA with Bonferroni’s post-hoc test. See also Fig. S1. […]
RNA was isolated from NHEKs using Purelink RNA isolation columns (ThermoFisher Scientific) according to the manufacturer’s instructions. RNA was quantified using a Nanodrop spectrophotometer (ThermoFisher Scientific), and up to 500 ng of RNA was reverse-transcribed using the iScript cDNA synthesis kit (Bio-Rad, Irvine, CA). Quantitative real-time PCR reactions were run on a CFX96 real-time detection system (Bio-Rad) using gene-specific primers and TaqMan probes (ThermoFisher Scientific). […]

THP1 cells = assay: Cytokine expression in PMA-treated THP1 cells stimulated with cathelicidin peptide and U1 RNA; assay type: cell-based, human; conditions: PMA-treated THP1, peptide 3 μM 10 minutes, then U1 RNA 12.5 μg/mL overnight; n = 3
Protocol: Figure 1 Inflammatory activity of cathelicidin can be dissociated from antimicrobial function (a) Transcriptomic analysis by RNASeq of primary cultures of normal human epidermal keratinocytes (NHEKs) treated with LL37 (2.5 μM) with or without U1 RNA (2.5 μg/mL) for 24 hours. Shown are gene sets induced > 2 fold over vehicle, and after treatment with LL37, U1 RNA, or the combination of LL37 + U1 RNA. (b) Gene Ontology analysis of gene sets from (a). The number of genes related to each biological process is indicated in parentheses. (c) Amino acid sequence of synthetic cathelicidin peptides used in this study. (d) Antimicrobial assay of cathelicidin peptides against group A streptococcus (GAS). GAS were incubated with various concentrations of each peptide (0–25 μM) for 6 hours, then surviving colonies counted after plating on Todd Hewitt Broth gel. (e) IFN-β1 mRNA abundance and (f) IL-6 mRNA abundance in NHEKs after treatment with cathelicidin peptides (2.5 μM) for 10 minutes, then stimulated with U1 RNA (2.5 μg/mL) for a further 6 hours. (n = 3). (g) IFN-β1 mRNA abundance and (h) IL-6 mRNA abundance in […] (PMA)-treated THP1 cells after treatment with cathelicidin peptides (3 μM) for 10 minutes, then stimulated with U1 RNA (12.5 μg/mL) overnight. (n = 3). Data presented are from one representative experiment of at least two independent experiments. Error bars are SEM of three biological replicates. *P < 0.05, **P < 0.01, ***P < 0.001 by two-way ANOVA with Bonferroni’s post-hoc test. See also Fig. S1.
Primary neonatal human epidermal keratinocytes (NHEKs) was purchased from ThermoFisher Scientific. NHEKs were grown in serum free EpiLife medium supplemented with 0.06 mM CaCl2, EpiLife Defined growth supplements (EDGS) (ThermoFisher Scientific) and antibiotics, and passage 3–5 cells were used for experiment. Cells at 60–80% confluence were starved overnight without EDGS prior to treatment. THP1 was purchased from American Type Culture Collection (ATCC) (Manassas, VA). THP1 was cultured in RPMI-1640 (Sigma) supplemented with 10% Hyclone fetal calf serum (Thermofisher Scientific), and antibiotics, and passage 3–5 cells were used for experiment. Cells at 60–80% confluence were differentiated by Phorbol 12-myristate 13-acetate (PMA, Sigma) for 24 hours and then starved overnight without Hyclone fetal calf serum prior to treatment.
RNA was isolated from NHEKs using Purelink RNA isolation columns (ThermoFisher Scientific) according to the manufacturer’s instructions. RNA was quantified using a Nanodrop spectrophotometer (ThermoFisher Scientific), and up to 500 ng of RNA was reverse-transcribed using the iScript cDNA synthesis kit (Bio-Rad, Irvine, CA). Quantitative real-time PCR reactions were run on a CFX96 real-time detection system (Bio-Rad) using gene-specific primers and TaqMan probes (ThermoFisher Scientific). PCR primers and probes are shown on Table S2.

Substance | close association between U1 RNA and SR-B1 (PLA, <40 nm) (SR-B1) | capacity to enable U1 RNA to amplify IFN-β1 or IL-6 expression (NHEKs) | capacity to induce IL-6 and IFN-β mRNA (NHEKs; peptide with U1 RNA, keratinocytes) | capacity to enable U1 RNA to amplify IFN-β1 or IL-6 expression (THP1 cells)
LLGDFFRKSKEKIGKEFKRIVQRIKDFLRNLVPR [LL34] | enabled close association | large responses | ca. 3000 fold | large responses
LL37 | enabled close association | large responses | – | large responses
